Laboratory results reported in patent publication US20250011365A1, “ECHINOCANDIN-BASED DRUG, AND PREPARATION METHOD THEREFOR AND USE THEREOF” (Shenzhen Sungening Biological Co., Ltd, priority 2023, published 2025).
Numbered stars: 1 amine (or outer) side, 2 acyl side, 3 side chain; on linkers, the order of the positions; unused ones are H or OH. Bridge positions count the residues as written; N and C are the ends. Square brackets hold non-standard residues; d marks the D form. Peptide text beside a SMILES is read from it. * marks the point of attachment. Orn(4R-OH,5R-OCH2CH2NMe3+) = C[N+](C)(C)CCO[C@@H](N[*:3])[C@H](O)C[C@H](N[*:1])C(=O)[*:2]; hTyr(3S-OH,4S-OH) = N[C@H](C(=O)O)[C@H](O)[C@@H](O)c1ccc(O)cc1; X1 = CCCCCOc1cc(F)c(C#Cc2ccc3cc(C(=O)*)ccc3c2)cc1F; Pro(3S-OH,4S-Me) = C[C@H]1CN[C@H](C(=O)O)[C@H]1O; Hyp = O=C(O)[C@@H]1C[C@@H](O)CN1

Experiments:
C. glabrata ATCC 15126 = assay: MIC assay, Candida standard strain (CLSI M27-A3); assay type: cell-based; conditions: Nakaseomyces glabratus, ATCC15126, 24 h, 35° C.
Procedure: (§1) After gradient dilution of test compounds, an MIC assay was performed on a Candida standard strain, and an MEC assay was performed on an Aspergillus standard strain. […] A cryopreserved strain was passaged at least 2 times. A single colony was picked and resuspended in a physiological saline or sterile water tube, and the tube was subjected to vortex shaking. The Candida suspension was adjusted to 0.5 McF (1×10^6-5×10^6 CFU/mL) at a wavelength of 530 nm by using a spectrophotometer. After being diluted 50 times with physiological saline, the Candida suspension was diluted 20 times with 1×RPMI 1640 broth (1×10^3-5×10^3 CFU/mL). 10 μL of the diluted Candida suspension was coated on an SDA plate for colony counting, with a range of about 10-50 single colonies. After a prepared drug sensitive plate was completely dissolved at room temperature, the Candida suspension was added to the 96-well plate by using a multi-channel pipettor at 100 μL/well. At this time, the concentration of Candida in each well should be 0.5×10^3-2.5×10^3 CFU/mL. A yeast-type fungus assay plate was placed in an incubator, and incubated for 24 h at 35° C. and 85% humidity, and then the MIC values were read. For echinocandin-based drugs, Aspergillus was incubated for 21-26 h at 28° C., and then the MEC results were read. Yeast-type fungi: A 96-well plate was attached with a disposable parafilm, shaken for uniformly mixing, and observed with naked eyes by using a plate reader microscope. […] Pictures were taken and saved by using an automated plate reader.

C. krusei ATCC 6258 = assay: MIC assay, Candida standard strain (CLSI M27-A3); assay type: cell-based; conditions: Pichia kudriavzevii, ATCC6258; C. krusei ATCC 6258 (quality-control strain); 24 h, 35° C.
Procedure: as §1

[1] = system: C. parapsilosis ATCC 22019; assay: MIC assay, Candida standard strain (CLSI M27-A3); assay type: cell-based; conditions: Lodderomyces parapsilosis, ATCC22019; C. parapsilosis ATCC 22019 (quality-control strain); 24 h, 35° C.
Procedure: as §1

C. tropicalis ATCC 750 = assay: MIC assay, Candida standard strain (CLSI M27-A3); assay type: cell-based; conditions: ATCC750, 24 h, 35° C.
Procedure: as §1

[2] = system: Candida albicans ATCC 10231; assay: MIC assay, Candida standard strain (CLSI M27-A3); assay type: cell-based; conditions: ATCC10231, 24 h, 35° C., >50% growth inhibition
Procedure: as §1

[3] = system: Candida albicans ATCC 14053; assay: MIC assay, Candida standard strain (CLSI M27-A3); assay type: cell-based; conditions: ATCC14053, 24 h, 35° C.
Procedure: as §1

[4] = system: Candida albicans ATCC 18804; assay: MIC assay, Candida standard strain (CLSI M27-A3); assay type: cell-based; conditions: ATCC18804, 24 h, 35° C.
Procedure: as §1

[5] = system: Candida albicans ATCC 64124; assay: MIC assay, Candida standard strain (CLSI M27-A3); assay type: cell-based; conditions: ATCC64124, 24 h, 35° C.
Procedure: as §1

[6] = system: Candida albicans ATCC 76485; assay: MIC assay, Candida standard strain (CLSI M27-A3); assay type: cell-based; conditions: ATCC76485, 24 h, 35° C.
Procedure: as §1

[7] = system: Candida albicans ATCC 90028; assay: MIC assay, Candida standard strain (CLSI M27-A3); assay type: cell-based; conditions: ATCC90028, 24 h, 35° C., >50% growth inhibition
Procedure: as §1

[8] = system: Candida albicans ATCC 90029; assay: MIC assay, Candida standard strain (CLSI M27-A3); assay type: cell-based; conditions: ATCC90029, 24 h, 35° C.
Procedure: as §1

[9] = system: Candida albicans ATCC MYA-1023; assay: MIC assay, Candida standard strain (CLSI M27-A3); assay type: cell-based; conditions: 24 h, 35° C.
Procedure: as §1

[10] = system: Candida albicans ATCC MYA-2876; assay: MIC assay, Candida standard strain (CLSI M27-A3); assay type: cell-based; conditions: 24 h, 35° C.
Procedure: as §1

[11] = system: Candida albicans ATCC MYA-427; assay: MIC assay, Candida standard strain (CLSI M27-A3); assay type: cell-based; conditions: 24 h, 35° C.
Procedure: as §1

[12] = system: Candida albicans ATCC MYA-4788; assay: MIC assay, Candida standard strain (CLSI M27-A3); assay type: cell-based; conditions: 24 h, 35° C.
Procedure: as §1

[13] = system: Candida albicans ATCC MYA-574; assay: MIC assay, Candida standard strain (CLSI M27-A3); assay type: cell-based; conditions: 24 h, 35° C.
Procedure: as §1

[14] = system: Candida albicans CICC 1943; assay: MIC assay, Candida standard strain (CLSI M27-A3); assay type: cell-based; conditions: CICC1943, 24 h, 35° C.
Procedure: as §1

[15] = system: Candida albicans CMCC 98001; assay: MIC assay, Candida standard strain (CLSI M27-A3); assay type: cell-based; conditions: CMCC98001, 24 h, 35° C.
Procedure: as §1

[16] = system: Aspergillus fumigatus ATCC 204305; assay: MEC assay, Aspergillus standard strain (CLSI M38-A2); assay type: cell-based; conditions: 21-26 h, 28° C.
Procedure: After gradient dilution of test compounds, an MIC assay was performed on a Candida standard strain, and an MEC assay was performed on an Aspergillus standard strain.
The colonies on the plate were covered with 0.85% physiological saline (1 mL) or sterile water (polysorbate 20 was added to a final concentration of 0.1%-0.01%). […] The resuspension of spore hyphae was transferred to a sterile test tube, and left to stand for 3-5 min to precipitate heavier particles. The homogeneous suspension on the upper layer was transferred to a new sterile test tube, and the tube was capped closely, and subjected to vortex shaking for 15 s (note: the suspension can produce an aerosol when the cap is reopened). The concentration of the suspension was adjusted to an OD value of 0.09-0.13 at 530 nm by using a spectrophotometer. […] Within 2 h after dilution, 100 μL of the diluted suspension was added to each well in a 96-well plate (the concentration of spores in the final drug sensitive plate should be 0.4×10^4-5×10^4 CFU/mL).
In order to accurately determine MEC value, vortex oscillation should not be allowed before reading the plate.

[17] = system: Pichia guilliermondii ATCC 6260; assay: MIC assay, yeast-type fungi (CLSI M27-A3); assay type: cell-based; conditions: Meyerozyma guilliermondii, ATCC6260, 24 h, 35° C.
Procedure: as §1

[18] = system: Cryptococcus neoformans ATCC 208821; assay: MIC assay, yeast-type fungi (CLSI M27-A3); assay type: cell-based; conditions: ATCC208821, 24 h, 35° C.
[19] = rat, in vivo, iv
in vivo = conditions: SD, rat, iv

**Q.** Which MIC (C. glabrata ATCC 15126) does the source give for `CCCCCOc1cc(F)c(C#Cc2ccc3cc(C(=O)N[C@H]4C[C@@H](O)[C@@H](OCC[N+](C)(C)C)NC(=O)[C@@H]5[C@@H](O)[C@@H](C)CN5C(=O)[C@H]([C@@H](C)O)NC(=O)[C@H]([C@H](O)[C@@H](O)c5ccc(O)cc5)NC(=O)[C@@H]5C[C@@H](O)CN5C(=O)[C@H]([C@@H](C)O)NC4=O)ccc3c2)cc1F` [Example 16] (X1-[Orn(4R-OH,5R-OCH2CH2NMe3+)]T[Hyp][hTyr(3S-OH,4S-OH)]T[Pro(3S-OH,4S-Me)]; lactam 1-C) here?
**A.** 0.06 µg/mL

**Q.** And the MIC (C. krusei ATCC 6258)?
**A.** 0.06 µg/mL

**Q.** And the MIC [1]?
**A.** 0.5 µg/mL

**Q.** What about the MIC (C. tropicalis ATCC 750) of the same compound?
**A.** ≤ 0.015 µg/mL

**Q.** What about the MIC [2] of the same compound?
**A.** 0.03 µg/mL

**Q.** And the MIC [3]?
**A.** ≤ 0.015 µg/mL

**Q.** And the MIC [4]?
**A.** ≤ 0.015 µg/mL

**Q.** And the MIC [5]?
**A.** ≤ 0.015 µg/mL

**Q.** And the MIC [6]?
**A.** ≤ 0.015 µg/mL

**Q.** And the MIC [7]?
**A.** 0.03 µg/mL

**Q.** And the MIC [8]?
**A.** ≤ 0.015 µg/mL

**Q.** And the MIC [9]?
**A.** ≤ 0.015 µg/mL

**Q.** And the MIC [10]?
**A.** ≤ 0.015 µg/mL

**Q.** What about the MIC [11] of the same compound?
**A.** 0.03 µg/mL

**Q.** And the MIC [12]?
**A.** ≤ 0.015 µg/mL

**Q.** And the MIC [13]?
**A.** ≤ 0.015 µg/mL

**Q.** And the MIC [14]?
**A.** 0.03 µg/mL

**Q.** And the MIC [15]?
**A.** ≤ 0.015 µg/mL

**Q.** And the MEC [16]?
**A.** ≤0.015 µg/mL

**Q.** What about the MIC [17] of the same compound?
**A.** 0.25 µg/mL

**Q.** And the MIC [18]?
**A.** 8 µg/mL

**Q.** What about the “drug exposure level (Cmax and AUC) and half-life (T1/2) in the blood plasma compared with rezafungin” value [19] of the same compound?
**A.** significantly higher

**Q.** What about the AUC(0-inf) (in vivo; 2.5 mg/kg) of the same compound?
**A.** 275 µg·h/mL

**Q.** What about the AUC(0-t) (in vivo; 2.5 mg/kg) of the same compound?
**A.** 206 µg·h/mL

**Q.** And the Cmax (in vivo; 2.5 mg/kg)?
**A.** 6080 ng/mL

**Q.** And the MRT last (in vivo; 2.5 mg/kg)?
**A.** 26.1 h

**Q.** And the Vd (in vivo; 2.5 mg/kg)?
**A.** 0.49 L/kg

**Q.** And the clearance (in vivo; 2.5 mg/kg)?
**A.** 0.15 mL/min/kg

**Q.** What about the half-life (in vivo; 2.5 mg/kg) of the same compound?
**A.** 37.3 h

**Q.** What about the AUC(0-inf) (in vivo; 5 mg/kg) of the same compound?
**A.** 424 µg·h/mL

**Q.** What about the AUC(0-t) (in vivo; 5 mg/kg) of the same compound?
**A.** 326 µg·h/mL

**Q.** And the Cmax (in vivo; 5 mg/kg)?
**A.** 12000 ng/mL

**Q.** And the MRT last (in vivo; 5 mg/kg)?
**A.** 24.2 h

**Q.** What about the Vd (in vivo; 5 mg/kg) of the same compound?
**A.** 0.591 L/kg

**Q.** What about the clearance (in vivo; 5 mg/kg) of the same compound?
**A.** 0.2 mL/min/kg

**Q.** What about the half-life (in vivo; 5 mg/kg) of the same compound?
**A.** 34.8 h
